What was measured:
[1] = molecular target: T1, NIH3T3 cells expressing the full length KDR receptor (Homo sapiens, UniProt P35968); assay: Cell mechanistic assay - Inhibition of 3T3 KDR phosphorylation; type: cell-based; conditions: VEGF (30 ng / ml) stimulated KDR phosphorylation in NIH3T3 cells, 30 minutes preincubation
T1 construct: NIH3T3 cells expressing the full length KDR receptor; expressed in transfected cells; host or cells: NIH3T3 cells (G418 selection)
Description: NIH3T3 cells expressing the full length KDR receptor were grown in DMEM (Life Technologies, Inc., Grand Island, NY) supplemented with 10% newborn calf serum, low glucose, 25 mM /L sodium pyruvate, pyridoxine hydrochloride and 0.2 mg/ ml of G418 (Life Technologies Inc., Grand Island, NY). The cells were maintained in collagen I-coated T75 flasks (Becton Dickinson Labware, Bedford, MA) in a humidified 5% CO2 atmosphere at 37°C.
Fifteen thousand cells were plated into each well of a collagen 1-coated 96-well plate in the DMEM growth medium. Six hours later, the cells were washed and the medium was replaced with DMEM without serum. After overnight culture to quiesce the cells, the medium was replaced by Dulbecco's phosphate-buffered saline (Life Technologies Inc., Grand Island, NY) with 0.1 % bovine albumin (Sigma Chemical Co., St Louis, MO). After adding various concentrations (0-300 nM) of test compounds to the cells in 1% final concentration of DMSO, the cells were incubated at room temperature for 30 minutes. The cells were then treated with VEGF (30 ng / ml) for 10 minutes at room temperature. Following VEGF stimulation, the buffer was removed and the cells were lysed by addition of 150 µl of extraction buffer (50 mM Tris, pH 7.8, supplemented with 10% glycerol, 50 mM BGP, 2 mM EDTA, 10 mM NaF, 0.5 mM NaVO4, and 0.3% TX-100) at 4°C for 30 minutes.
To assess receptor phosphorylation, 100 microliters of each cell lysate was added to the wells of an ELISA plate precoated with 300 ng of antibody C20 (Santa Cruz Biotechnology, Inc., Santa Cruz , CA). Following a 60-minute incubation, the plate was washed and bound KDR was probed for phosphotyrosine using an anti-phosphotyrosine mAb clone 4G10 (Upstate Biotechnology, Lake Placid, NY). The plate was washed and wells were incubated with anti-mouse IgG/HRP conjugate (Amersham International plc, Buckinghamshire, England) for 60 minutes. Wells were washed and phosphotyrosine was quantitated by addition of 100 µl per well of 3,3',5,5' tetramethylbenzidine (Kirkegaard and Perry, TMB Microwell 1 Component peroxidase substrate) solution. Color development was arrested by the addition of 100 µl 1% HCl based stop solution (Kirkegaard and Perry, TMB 1 Component Stop Solution).
Optical densities (OD) were determined spectrophotometrically at 450 nm in a 96-well plate reader (SpectraMax 250, Molecular Devices). Background (no VEGF added) OD values were subtracted from all ODs and percent inhibition was calculated according to the equation: % Inhibition = ((OD(VEGF control)-OD(with test compound)) × 100)/(OD(VEGF control)-OD(no VEGF added)) [formula]
IC50s were determined on some of the exemplary materials with a least squares analysis program using compound concentration versus percent inhibition. Compounds that have IC50 ≤ 20 nM in this assay include those of Examples 2, 6, 10, 11, 14, 23, 96, 101, 102, 103, 104, 105. Compounds that have IC50 values between 20 nM and 50 nM include those of examples 1, 4, 8, 9, 12, 13, 17, 24, 93, 98. Compounds that have IC50 values between 50 nM and 400 nM include those of examples 97, 99, and 100.

[2] = tested on: SK-MEL2 human tumor cells that were transfected with a plasmid containing the murine VEGF gene; assay: Matrigel Angiogenesis Model (hemoglobin content of Matrigel pellets); type: in vivo, Mice; conditions: vs. vehicle control animals, 12 days post-implantation
Description: Preparation of Matrigel Plugs and in vivo Phase: Matrigel® (Collaborative Biomedical Products, Bedford, MA) is a basement membrane extract from a murine tumor composed primarily of laminin, collagen IV and heparan sulfate proteoglycan. It is provided as a sterile liquid at 4° C, but rapidly forms a solid gel at 37° C.
Liquid Matrigel at 4° C was mixed with SK-MEL2 human tumor cells that were transfected with a plasmid containing the murine VEGF gene with a selectable marker. Tumor cells were grown in vitro under selection and cells were mixed with cold liquid Matrigel at a ratio of 2 X 10^6 per 0.5 ml. […]
Optical densities were determined spectrophotometrically at 600 nm in a 96-well plate reader, SpectraMax 250 Microplate Spectrophotometer System (Molecular Devices, Sunnyvale, CA). Background Lysis Buffer readings were subtracted from all wells.
Total sample hemoglobin content was calculated according to the following equation: Total Hemoglobin = (Sample Lysate Volume) × (Hemoglobin Concentration) [formula]
The average Total Hemoglobin of Matrigel samples without cells was subtracted from each Total Hemoglobin Matrigel sample with cells. Percent inhibition was calculated according to the following equation: % Inhibition = ((Average Total Hemoglobin Drug-Treated Tumor Lysates) × 100)/((Average Total Hemoglobin Non-Treated Tumor Lysates)) [formula] […]

T1 sequence (P35968 20-1356): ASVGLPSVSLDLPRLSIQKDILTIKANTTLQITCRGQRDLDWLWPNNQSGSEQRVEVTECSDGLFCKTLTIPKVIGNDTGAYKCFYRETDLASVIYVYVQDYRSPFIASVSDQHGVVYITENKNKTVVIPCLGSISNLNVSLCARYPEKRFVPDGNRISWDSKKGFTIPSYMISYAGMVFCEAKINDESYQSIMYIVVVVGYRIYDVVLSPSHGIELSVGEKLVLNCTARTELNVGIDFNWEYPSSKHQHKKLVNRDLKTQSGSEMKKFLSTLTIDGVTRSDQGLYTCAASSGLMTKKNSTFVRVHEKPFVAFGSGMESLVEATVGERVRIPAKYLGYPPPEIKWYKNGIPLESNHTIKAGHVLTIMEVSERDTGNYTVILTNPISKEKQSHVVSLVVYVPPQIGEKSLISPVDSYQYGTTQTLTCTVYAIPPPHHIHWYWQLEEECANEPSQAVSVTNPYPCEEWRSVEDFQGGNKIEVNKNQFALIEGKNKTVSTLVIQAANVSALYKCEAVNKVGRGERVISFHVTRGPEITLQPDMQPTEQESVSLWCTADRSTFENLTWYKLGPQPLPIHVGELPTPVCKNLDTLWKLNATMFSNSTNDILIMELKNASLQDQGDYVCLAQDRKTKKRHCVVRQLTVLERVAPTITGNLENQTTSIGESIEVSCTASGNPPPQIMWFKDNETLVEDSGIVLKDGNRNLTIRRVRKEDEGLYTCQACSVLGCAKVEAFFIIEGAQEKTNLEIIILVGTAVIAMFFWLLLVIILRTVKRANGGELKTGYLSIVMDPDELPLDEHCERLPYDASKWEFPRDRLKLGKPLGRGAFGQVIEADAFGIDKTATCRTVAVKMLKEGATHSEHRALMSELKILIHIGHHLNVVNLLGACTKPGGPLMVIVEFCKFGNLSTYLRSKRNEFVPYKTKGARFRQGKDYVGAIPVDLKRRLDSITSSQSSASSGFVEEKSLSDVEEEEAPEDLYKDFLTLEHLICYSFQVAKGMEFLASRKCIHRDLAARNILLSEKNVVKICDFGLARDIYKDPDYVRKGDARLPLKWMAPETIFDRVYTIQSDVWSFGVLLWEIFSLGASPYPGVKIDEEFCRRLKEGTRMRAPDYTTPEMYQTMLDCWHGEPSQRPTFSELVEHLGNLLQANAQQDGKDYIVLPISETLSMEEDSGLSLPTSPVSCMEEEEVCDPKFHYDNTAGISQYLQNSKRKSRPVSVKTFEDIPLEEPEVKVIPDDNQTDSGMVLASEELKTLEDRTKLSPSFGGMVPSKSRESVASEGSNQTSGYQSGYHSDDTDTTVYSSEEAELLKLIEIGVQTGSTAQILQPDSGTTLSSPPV

## Clc1ccc(Nc2nnc(OCc3ccncc3)c3sccc23)cc1 [Example 8, 4-(4-chlorophenylamino)-7-(4-pyridylmethoxy)thieno-[2,3-d]pyridazine]
[1]
  IC50: 20 to 50 nM
[2]; 100 mg/kg po sid
  inhibition of total hemoglobin content of the Matrigel samples: > 60%
[2]; 300 mg/kg po sid
  inhibition of total hemoglobin content of the Matrigel samples: > 60%
